# Assay results published in paper PMC5393024, “Discovery and characterization of natural tropolones as inhibitors of the antibacterial target CapF from Staphylococcus aureus” (Scientific Reports, 2015).
# Key:
# [1] = molecular target: holo-CapF (reconstituted with Zn^2+) (Staphylococcus aureus, UniProt A0A0H3JP37); test: ITC binding to CapF reconstituted with Zn2+ (holo-CapF)
# Description: Because tropolone and its analogs have been described as metal chelators in proteins, we anticipated that binding of the inhibitor to CapF is governed by the Zn^2+ ion present in the cupin domain[12]. To confirm this hypothesis, we performed two different types of experiments. First, we determined the binding properties of 3-isopropenyl-tropolone to apo-CapF (i.e. Zn^2+-depleted CapF) and to holo-CapF (reconstituted with Zn^2+) by isothermal titration calorimetry (ITC). The stoichiometry is consistent with a 1:1 binding model.
# Figure 3 Binding of 3-isopropenyl-tropolone to CapF requires Zn^2+. CapF (150 μM) reconstituted with Zn^2+ was titrated with 1.65 mM inhibitor in the absence (a) or the presence (b) of 1 mM EDTA. The upper panels correspond to the titration data, and the lower panels to the integrated binding isotherms. (c) Binding competition assay. CapF (1.0 μM) reconstituted with Zn^2+ in the presence of the Zn^2+-sensitive dye FluoZin-3 (1.0 μM) was titrated with 3-isopropenyl-tropolone (λEX = 490 nm; λEM = 520 nm).
# Binding constants and thermodynamic parameters of the interaction between CapF and fragment compounds were determined with an iTC200 instrument (GE Healthcare) at 25 °C. Samples were equilibrated in a buffer composed of 10 mM HEPES (pH 7.4) and 150 mM NaCl supplemented with 5% (v/v) DMSO. CapF at 150–270 μM was titrated with compounds at 0.5–1.65 mM. Analysis of the data was performed with ORIGIN7 using a one-site binding model.
# Figure S8. Binding isotherms of compounds with CapF as determined by ITC. (a) tropone, (b) 2-Cl-tropone, (c) tropolone, (d) 4-isopropyl-tropolone. Concentration of CapF in the cell was 150 µM, except in panel (a) where it was 270 µM. Concentration of compounds was 1.65 mM, except in panel (a) where it was 0.5 mM. Titrations were performed in an iTC200 instrument at 25 °C.
# Data analysis was carried out with ORIGIN.
# [2] = tested on: CapF; test: HPLC-based inhibition assay (CapE/CapF coupled reaction); type: biochemical, Staphylococcus aureus; details: 1 mM compound, 37 °C, 2 hours
# Procedure: For that purpose, an HPLC-based assay monitoring the consumption of substrate and the appearance of product was employed (Fig. 2b)[12]. Whereas in the absence of 3-isopropenyl-tropolone the substrate was converted into product with nearly quantitative yield (91%), in the presence of 1 mM 3-isopropenyl-tropolone the peaks corresponding to substrate and product were largely absent (their combined areas were <18%). Instead, a large peak corresponding to the byproduct generated by the enzyme CapE under thermodynamic control was observed (80% yield as judged from the area under the curve). To confirm that inhibition of 3-isopropenyl-tropolone is specific for CapF we performed an additional experiment employing only CapE, which is the enzyme generating the substrate for CapF in the functional assay (Supplementary Information Figure S2).
# For the HPLC-based inhibition assay, a solution containing 1.0 μM CapE, 0.02 μM CapF, 250 μM UDP-D-GlcNAc, 250 μM NADPH, and 1 mM compound in HBS buffer supplemented with 0.005% (v/v) Tween-20 and 5% (v/v) DMSO were incubated at 37 °C for 2 hours. The reaction was stopped by addition of 100 μL of ice-cold phenol/chloroform/isoamyl alcohol in a 25:24:1 […]. The supernatant containing the products of the reaction was mixed with 100 μL of chloroform and examined by HPLC using a CarboPac PA1 anion-exchange column (Dionex) as described previously. […]
# Chain of holo-CapF (reconstituted with Zn^2+) (A0A0H3JP37 entry or part of it): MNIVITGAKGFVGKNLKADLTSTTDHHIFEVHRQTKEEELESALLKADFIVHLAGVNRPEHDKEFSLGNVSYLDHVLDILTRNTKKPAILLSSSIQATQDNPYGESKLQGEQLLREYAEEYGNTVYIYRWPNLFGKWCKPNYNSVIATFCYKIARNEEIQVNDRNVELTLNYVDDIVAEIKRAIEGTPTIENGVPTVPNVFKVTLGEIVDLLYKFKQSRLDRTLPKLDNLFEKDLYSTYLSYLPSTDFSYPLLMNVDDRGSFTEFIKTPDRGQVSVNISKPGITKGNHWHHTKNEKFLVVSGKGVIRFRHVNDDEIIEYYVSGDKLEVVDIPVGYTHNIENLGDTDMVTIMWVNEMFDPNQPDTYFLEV
smiles,measurement,setting,value
C=C(C)c1ccccc(=O)c1O [3-isopropenyl-tropolone],Kd,[1],27 ± 12 µM
same,n (binding stoichiometry),"[1]; ITC, 25 °C",1.2 ± 0.1
same,ΔH°,"[1]; ITC, 25 °C",-3.4 ± 0.9 kcal/mol
same,−TΔS°,"[1]; ITC, 25 °C",-2.8 ± 1.1 kcal/mol
same,ligand efficiency (LE = −ΔG/HAC),[1]; from ITC binding free energy,0.52 kcal/mol
same,yield of byproduct generated by CapE (area under the curve),[2],80%
same,combined areas of substrate and product peaks,[2]; 91% product without inhibitor,< 18%
